# Data: PubChem BioAssay (NCI)
#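 Interpolation was linear, between the two tested concentrations surrounding the appropriate level; five concentrations were tested over 48 hours in 96-well plates. Abbreviation: GI50, concentration required for 50% inhibition of growth. TGI: concentration producing complete growth inhibition.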
# Assays:
# Assay in all cases: inhibition of tumour cell growth, NCI panel, 48 h
# SF-268 CNS = system: SF-268 CNS
# NCI-H522 lung = system: NCI-H522 lung
# OVCAR-3 ovarian = system: OVCAR-3 ovarian
# CCRF-CEM leukemia = system: CCRF-CEM leukemia
# SNB-19 CNS = system: SNB-19 CNS
# UACC-62 melanoma = system: UACC-62 melanoma
# HCT-116 colon = system: HCT-116 colon
# UACC-257 melanoma = system: UACC-257 melanoma
# NCI-H23 lung = system: NCI-H23 lung
# MOLT-4 leukemia = system: MOLT-4 leukemia
# MDA-MB-435 = system: MDA-MB-435
# TK-10 renal = system: TK-10 renal
# NCI/ADR-RES ovarian = system: NCI/ADR-RES ovarian
# NCI-H460 lung = system: NCI-H460 lung
# SF-539 CNS = system: SF-539 CNS
# HT29 colon = system: HT29 colon
# RPMI-8226 leukemia = system: RPMI-8226 leukemia
# SN12C renal = system: SN12C renal
# K-562 leukemia = system: K-562 leukemia
# SK-OV-3 ovarian = system: SK-OV-3 ovarian
# RXF 393 renal = system: RXF 393 renal
# CAKI-1 renal = system: CAKI-1 renal
# NCI-H226 lung = system: NCI-H226 lung
# EKVX NSCLC = system: EKVX NSCLC
# HL-60(TB) leukemia = system: HL-60(TB) leukemia
# SF-295 CNS = system: SF-295 CNS
# M14 melanoma = system: M14 melanoma
# SK-MEL-2 melanoma = system: SK-MEL-2 melanoma
# 786-0 renal = system: 786-0 renal
# HS 578T breast = system: HS 578T breast
# KM12 colon = system: KM12 colon
# OVCAR-8 ovarian = system: OVCAR-8 ovarian
# LOX IMVI melanoma = system: LOX IMVI melanoma
# COLO 205 colon = system: COLO 205 colon
# OVCAR-4 ovarian = system: OVCAR-4 ovarian
# U251 CNS = system: U251 CNS
# HOP-62 NSCLC = system: HOP-62 NSCLC
# SW-620 colon = system: SW-620 colon
# ACHN renal = system: ACHN renal
# UO-31 renal = system: UO-31 renal
# BT-549 breast = system: BT-549 breast
# DU-145 prostate = system: DU-145 prostate
# SNB-75 CNS = system: SNB-75 CNS
# MCF7 breast = system: MCF7 breast
# HOP-92 NSCLC = system: HOP-92 NSCLC
# HCT-15 colon = system: HCT-15 colon
# HCC-2998 colon = system: HCC-2998 colon
# PC-3 prostate = system: PC-3 prostate
# MDA-MB-468 breast = system: MDA-MB-468 breast
# MALME-3M melanoma = system: MALME-3M melanoma
# SR leukemia = system: SR leukemia
# IGROV1 ovarian = system: IGROV1 ovarian
# OVCAR-5 ovarian = system: OVCAR-5 ovarian
# A498 renal = system: A498 renal
# MDA-MB-231 breast = system: MDA-MB-231 breast
# SK-MEL-5 melanoma = system: SK-MEL-5 melanoma
# T-47D breast = system: T-47D breast
# SK-MEL-28 melanoma = system: SK-MEL-28 melanoma
# A549 NSCLC = system: A549 NSCLC
compound,measurement,setting,value
CC1(C)CC[C@]2(C(=O)O)CC[C@]3(C)C(=CCC4[C@@]5(C)C[C@@H](O)[C@@H]6OC(c7ccco7)OC[C@@]6(C)C5CC[C@]43C)C2C1 (stereo partly drawn),GI50,SF-268 CNS,10.7 µM
same,TGI,SF-268 CNS,31.8 µM
same,GI50,NCI-H522 lung,10.6 µM
same,TGI,NCI-H522 lung,28.1 µM
same,GI50,OVCAR-3 ovarian,9.25 µM
same,TGI,OVCAR-3 ovarian,23 µM
same,GI50,CCRF-CEM leukemia,5.21 µM
same,TGI,CCRF-CEM leukemia,30.3 µM
same,GI50,SNB-19 CNS,3.97 µM
same,TGI,SNB-19 CNS,21.8 µM
same,GI50,UACC-62 melanoma,0.312 µM
same,TGI,UACC-62 melanoma,12.5 µM
same,GI50,HCT-116 colon,5.01 µM
same,TGI,HCT-116 colon,18.4 µM
same,GI50,UACC-257 melanoma,0.208 µM
same,TGI,UACC-257 melanoma,0.913 µM
same,GI50,NCI-H23 lung,9.31 µM
same,TGI,NCI-H23 lung,23.2 µM
same,GI50,MOLT-4 leukemia,4.75 µM
same,TGI,MOLT-4 leukemia,33.7 µM
same,GI50,MDA-MB-435,0.475 µM
same,TGI,MDA-MB-435,15.4 µM
same,GI50,TK-10 renal,16.4 µM
same,TGI,TK-10 renal,68.9 µM
same,GI50,NCI/ADR-RES ovarian,6.62 µM
same,TGI,NCI/ADR-RES ovarian,32.3 µM
same,GI50,NCI-H460 lung,6.45 µM
same,TGI,NCI-H460 lung,19.9 µM
same,GI50,SF-539 CNS,13.3 µM
same,TGI,SF-539 CNS,26.4 µM
same,GI50,HT29 colon,12.8 µM
same,TGI,HT29 colon,41.5 µM
same,GI50,RPMI-8226 leukemia,5.62 µM
same,TGI,RPMI-8226 leukemia,71.2 µM
same,GI50,SN12C renal,11.8 µM
same,TGI,SN12C renal,26.2 µM
same,GI50,K-562 leukemia,4.81 µM
same,TGI,K-562 leukemia,> 100 µM
same,GI50,SK-OV-3 ovarian,27.1 µM
same,TGI,SK-OV-3 ovarian,> 100 µM
same,GI50,RXF 393 renal,13 µM
same,TGI,RXF 393 renal,26.5 µM
same,GI50,CAKI-1 renal,21.3 µM
same,TGI,CAKI-1 renal,83.3 µM
same,GI50,NCI-H226 lung,11.7 µM
same,TGI,NCI-H226 lung,36.1 µM
same,GI50,EKVX NSCLC,5.05 µM
same,TGI,EKVX NSCLC,21.9 µM
same,GI50,HL-60(TB) leukemia,9.31 µM
same,TGI,HL-60(TB) leukemia,43.4 µM
same,GI50,SF-295 CNS,5.3 µM
same,TGI,SF-295 CNS,19.1 µM
same,GI50,M14 melanoma,0.416 µM
same,TGI,M14 melanoma,16.8 µM
same,GI50,SK-MEL-2 melanoma,0.417 µM
same,TGI,SK-MEL-2 melanoma,13.7 µM
same,GI50,786-0 renal,18.9 µM
same,TGI,786-0 renal,64.7 µM
same,GI50,HS 578T breast,11.1 µM
same,TGI,HS 578T breast,45.2 µM
same,GI50,KM12 colon,5.84 µM
same,TGI,KM12 colon,23.4 µM
same,GI50,OVCAR-8 ovarian,10.3 µM
same,TGI,OVCAR-8 ovarian,61.5 µM
same,GI50,LOX IMVI melanoma,5.69 µM
same,TGI,LOX IMVI melanoma,19.1 µM
same,GI50,COLO 205 colon,0.11 µM
same,TGI,COLO 205 colon,0.263 µM
same,GI50,OVCAR-4 ovarian,16.6 µM
same,TGI,OVCAR-4 ovarian,63.4 µM
same,GI50,U251 CNS,1.47 µM
same,TGI,U251 CNS,16.9 µM
same,GI50,HOP-62 NSCLC,7.06 µM
same,TGI,HOP-62 NSCLC,28.7 µM
same,GI50,SW-620 colon,11.2 µM
same,TGI,SW-620 colon,25.4 µM
same,GI50,ACHN renal,0.111 µM
same,TGI,ACHN renal,14.5 µM
same,GI50,UO-31 renal,6.95 µM
same,TGI,UO-31 renal,21.1 µM
same,GI50,BT-549 breast,6.78 µM
same,TGI,BT-549 breast,21.4 µM
same,GI50,DU-145 prostate,11.6 µM
same,TGI,DU-145 prostate,85 µM
same,GI50,SNB-75 CNS,6.35 µM
same,TGI,SNB-75 CNS,30.2 µM
same,GI50,MCF7 breast,8.83 µM
same,TGI,MCF7 breast,36.4 µM
same,GI50,HOP-92 NSCLC,5.97 µM
same,TGI,HOP-92 NSCLC,22.7 µM
same,GI50,HCT-15 colon,3.32 µM
same,TGI,HCT-15 colon,15.8 µM
same,GI50,HCC-2998 colon,6.35 µM
same,TGI,HCC-2998 colon,20.4 µM
same,GI50,PC-3 prostate,9.27 µM
same,TGI,PC-3 prostate,> 100 µM
same,GI50,MDA-MB-468 breast,0.11 µM
same,TGI,MDA-MB-468 breast,6.03 µM
same,GI50,MALME-3M melanoma,0.191 µM
same,TGI,MALME-3M melanoma,0.894 µM
same,GI50,SR leukemia,9.92 µM
same,TGI,SR leukemia,51.4 µM
same,GI50,IGROV1 ovarian,11.7 µM
same,TGI,IGROV1 ovarian,28 µM
same,GI50,OVCAR-5 ovarian,16.4 µM
same,TGI,OVCAR-5 ovarian,30.6 µM
same,GI50,A498 renal,14.1 µM
same,TGI,A498 renal,30.8 µM
same,GI50,MDA-MB-231 breast,16.2 µM
same,TGI,MDA-MB-231 breast,32.3 µM
same,GI50,SK-MEL-5 melanoma,0.304 µM
same,TGI,SK-MEL-5 melanoma,1.2 µM
same,GI50,T-47D breast,15.6 µM
same,TGI,T-47D breast,> 100 µM
same,GI50,SK-MEL-28 melanoma,0.22 µM
same,TGI,SK-MEL-28 melanoma,15.7 µM
same,GI50,A549 NSCLC,3.2 µM
same,TGI,A549 NSCLC,20.2 µM
